Tests used:
[1] = test system: BDL+LPS-induced liver impairment rat model; test: Evaluation of NTZ efficacy on BDL+LPS-induced liver impairment in rats; type: in vivo, Sprague Dawley rats
Procedure: The objective of the study was to assess the efficacy of NTZ to prevent LPS-induced inflammation, hepatic dysfunction and brain edema in fibrotic rats that underwent BDL surgery. BDL surgery was performed on 30 Sprague Dawley rats (Janvier). After anesthesia, a median laparotomy was performed to expose the liver and duodenum. The main bile duct was identified and dissected. After that, the bile duct was ligated in two parts: a first ligation was made in the middle of the bile duct, and the second ligation was made above the entrance of the pancreatic duct. The bile duct was then cut in the middle, to avoid recanalization. Fourteen days after surgery, a blood sample was collected from the sublingual vein to measure markers of hepatic injury (serum aspartate aminotransferase (AST), total bile acids and bilirubin) to stratify the animals into treatment groups. […] Two unoperated animals were included in the study as healthy controls. […] Nine rats with BDL received phosphate buffer saline (PBS, Fisher Scientific, USA) instead of LPS to be used as BDL controls. The body weight and food intake were monitored twice a week all along the study. During the fibrosis induction phase, each animal was observed once a day for the monitoring of clinical signs. Observations include changes in the skin, fur, eyes, occurrence of secretions and excretions and autonomic activity (lachrymation, piloerection, unusual respiratory pattern). Changes in gait, posture, stereotypes (e.g. excessive grooming, repetitive circling) or bizarre behavior (self-mutilation, walking backward) are also monitored. Animals were euthanized in case of weight loss of more than 25% for more than 3 consecutive days, absence of food consumption, deterioration of the general condition or vocalization. After LPS administration, each animal was continuously observed (appearance of the animal-change in fur, skin color, the degree of activity, vigilance-response to a stimulus, opening of the eyelids, activity, gait and behaviour) during 7 hours in order to assess the degree of severity of the inflammatory response and pain. Treatment with NTZ 100 mg/kg or vehicle (1% carboxymethylcellulose ([…], Sigma-Aldrich), 0.1% tween 80 ([…], Sigma-Aldrich)) was administered by gavage 1 hour before LPS injection. For oral gavage, NTZ powder was dissolved in CMC 1%, Tween 80 0.1% at the concentration of 10 mg/ml in an amber glass bottle, homogenized with a polytron and sonicated 10 seconds at a power of 10%. NTZ was kept under magnetic stirring until the administration to the rats at 10 ml/kg. LPS solution was prepared under a microbiological safety cabinet, in order to have a sterile solution to inject to rats. The LPS solution was dissolved in phosphate buffer saline (PBS) at 0.5 μg/ml, aliquoted and frozen until the day of experiment. LPS was administered at 2 ml/kg to the rats. All surviving animals were euthanized 3 h after LPS injection for plasma and tissues analyses. At the end of the study, by plasma level of hepatic function markers and cytokines, and brain edema have been evaluated.

[2] = Open-label multiple-dose PK, safety and tolerability study of NTZ 500 mg BID for 7 days in subjects with moderate or severe hepatic impairment vs normal hepatic function; conditions: for Cmax: Cmax GM; for AUC0-12 GM Ratio (Impaired/Control) / AUC0-t GM Ratio (Impaired/Control) / Cmax GM Ratio (Impaired/Control): steady state; for correlation coefficient AUC0-12 vs ALT / correlation coefficient AUC0-12 vs AST / correlation coefficient AUC0-12 vs Albumin / correlation coefficient AUC0-12 vs Bilirubin / correlation coefficient AUC0-12 vs INR / correlation coefficient Cmax vs ALT / correlation coefficient Cmax vs AST / correlation coefficient Cmax vs Albumin / correlation coefficient Cmax vs Bilirubin / correlation coefficient Cmax vs INR: highest among Pearson (P) and Spearman (S), natural (NS) and log (LS) scales, marker at screening
Procedure: The study design was an open-label, nonrandomized, 2-center, multiple-dose, parallel-group study to evaluate the PK as well as the safety and tolerability of NTZ 500 mg BID administration for 7 days in males and females patients with moderate and severe hepatic impairment as compared to matched control healthy males and females patients with normal hepatic function.
The objective was to assess the effect of hepatic impairment on the PK of tizoxanide (TZ; NTZ active metabolite), following repeated oral dose administration of NTZ 500 mg BID for 7 days in subjects with moderate or severe hepatic impairment and subjects with normal hepatic function.
The following parameters used to measure the hepatic function were considered for the evaluation of the degree of hepatic impairment on NTZ PK: Child-Pugh (CP) score (*), serum albumin, serum total bilirubin, international normalized ratio (INR), aspartate aminotransferase (AST), alanine aminotransferase (ALT).
(*) For the control match healthy subject group, CP score was not calculated, and the analysis was limited to hepatic impaired patients.
Subjects were enrolled within the following groups based on their CP score at Screening: • Group 1: Normal hepatic function • Group 2: Moderate hepatic impairment (CP Class B) • Group 3: Severe hepatic impairment (CP Class C)
On Day 1, the study subjects took 500 mg NTZ (1 tablet) with 240 mL (8 fluid ounces) of water 30 minutes after the start of the standardized breakfast. No food was allowed for at least 4 h after each dose. Blood PK samples were taken at the following timepoints: pre-dose (completed in fasted state prior to the start of the standardized breakfast), T1h, T2h, T3h, T4h, T5h, T6h, T7h, T8h, T10h and T12h post-dose.
From Day 2 to Day 6, subjects received 500 mg of nitazoxanide (1 tablet) in the morning and in the evening for 6 consecutive days and on Day 7 the last dose was administered in the morning. Pre-dose blood PK sample was collected in fasted state prior to the start of the standardized breakfast each morning from Day 2 to Day 6.
On Day 7, blood PK samples were taken at the following timepoints: Pre-dose (completed in fasted state prior to the start of the standardized breakfast), T1h, T2h, T3h, T4h, T5h, T6h, T7h, T8h, T10h, T12h, T14h and T16h post-dose. PK samples at T18h, T24h and T48h post dose were taken respectively on D8 and D9.
The primary analysis was to assess the difference in the PK parameters (Cmax, AUC0-12 and AUC0-t) of total TZ after repeated oral administration of NTZ 500 mg BID for 7 days in subjects with moderate or severe hepatic impairment and subjects with normal hepatic function.
The secondary analysis was to determine the accumulation ratios on AUC0-12 and Cmax measured after a single (Day 1) and a 7-day repeated (BID) oral administrations.
The relationship between hepatic function markers (serum albumin, serum total bilirubin, INR, AST and ALT (obtained at screening)) and PK parameters (Cmax and AUC0-12) for TZ and TZ Glu (total and unbound) were investigated and evaluated using graphical and correlation techniques.
Both Pearson (supporting a linear trend) and Spearman correlation (supporting a monotonic trend) coefficients were calculated. The correlation coefficients (p) were used to measure appropriately the association for most possible relationship and only strong correlations (i.e. p≥0.75) would support further modeling.

[3] = NTZ 100 mg/kg by gavage 1 hour before LPS, blood collected 3 hours after LPS
[4] = total TZ, all groups combined, listed as Total TZ
[5] = total TZ, Moderate (CP B) vs Control
[6] = total TZ, Severe (CP C) vs Control

CC(=O)Oc1ccccc1C(=O)Nc1ncc([N+](=O)[O-])s1 [NTZ, nitazoxanide]
brain edema: change of brain water content compared to the BDL condition ([1]; NTZ 100 mg/kg by gavage 1 hour before LPS, 3 h after LPS, p=0.006): −111%
decrease of circulating IL-1β [1, 3]: 91%
decrease of circulating IL-6 [1, 3]: 93%
decrease of circulating TNFα [1, 3]: 94%
percentage of liver fibrosis ([1]; NTZ 100 mg/kg by gavage 1 hour before LPS, euthanized 3 h after LPS, data not shown): Neither LPS nor NTZ treatment affected the percentage of liver fibrosis
LPS-induced alteration of plasma total bile acids, total bilirubin, albumin and GGT ([1]; NTZ 100 mg/kg by gavage 1 hour before LPS, plasma 3 h after LPS): tended to reduce the LPS-induced alteration of these markers
reduction of plasma urea (LPS-induced renal impairment) ([1]; NTZ 100 mg/kg by gavage 1 hour before LPS, plasma 3 h after LPS, p=0.007): 84%
reduction of plasma ASAT compared to the ACLF-Veh condition ([1]; NTZ 100 mg/kg by gavage 1 hour before LPS, plasma 3 h after LPS, p=0.01): 100%
reduction of plasma ALAT compared to the ACLF-Veh condition ([1]; NTZ 100 mg/kg by gavage 1 hour before LPS, plasma 3 h after LPS, p=0.03): 101%
LPS-induced rise in ALT, change with NTZ ([1]; NTZ 100 mg/kg, conclusions): −101%
LPS-induced rise in AST, change with NTZ ([1]; NTZ 100 mg/kg, conclusions): −100%
LPS-induced rise in urea, change with NTZ ([1]; NTZ 100 mg/kg, conclusions): −84%
brain edema: water content (in words) ([1]; NTZ 100 mg/kg, conclusions): totally restored the water content to the level of BDL and healthy rats
safety in patients with hepatic impairment ([2]; NTZ 500 mg BID for 7 days): safe

O=C(Nc1ncc([N+](=O)[O-])s1)c1ccccc1O [TZ, tizoxanide]
fraction of the dose recovered in urine over 12 h ([2]; Day 1 and Day 7, regardless of the group): less than 1%
Tmax ([2]; both, human, blood, oral, 500 mg): 3.5 to 5 h
AUC(0-t) ([2]; both, human, blood, oral, 500 mg, AUC0-12 GM, total TZ, all groups combined (Total), DAY 1, single 500 mg NTZ dose): 115 µM·h
AUC(0-t) ([2]; both, human, blood, oral, 500 mg, AUC0-12 GM, total TZ, all groups combined (Total), DAY 7, NTZ 500 mg BID): 183 µM·h
AUC(0-t) ([2]; both, human, blood, oral, 500 mg, AUC0-12 GM, total TZ, steady state after NTZ 500 mg BID 7 days, Moderate (CP B)): 145 µM·h
AUC(0-t) ([2]; both, human, blood, oral, 500 mg, AUC0-12 GM, total TZ, steady state after NTZ 500 mg BID 7 days, Severe (CP C)): 264 µM·h
AUC(0-t) ([2]; both, human, blood, oral, 500 mg, AUC0-t GM, total TZ, steady state after NTZ 500 mg BID 7 days, Control group (normal hepatic function)): 165 µM·h
AUC(0-t) ([2]; both, human, blood, oral, 500 mg, AUC0-t GM, total TZ, steady state after NTZ 500 mg BID 7 days, Moderate (CP B)): 150 µM·h
AUC(0-t) ([2]; both, human, blood, oral, 500 mg, AUC0-t GM, total TZ, steady state after NTZ 500 mg BID 7 days, Severe (CP C)): 297 µM·h
Cmax ([2]; both, human, blood, oral, 500 mg, total TZ, all groups combined (Total), DAY 1, single 500 mg NTZ dose): 24.8 µM
Cmax ([2]; both, human, blood, oral, 500 mg, total TZ, all groups combined (Total), DAY 7, NTZ 500 mg BID): 34.7 µM
Cmax ([2]; both, human, blood, oral, 500 mg, total TZ, steady state after NTZ 500 mg BID 7 days, Control group (normal hepatic function)): 35.3 µM
Cmax ([2]; both, human, blood, oral, 500 mg, total TZ, steady state after NTZ 500 mg BID 7 days, Moderate (CP B)): 28.2 µM
Cmax ([2]; both, human, blood, oral, 500 mg, total TZ, steady state after NTZ 500 mg BID 7 days, Severe (CP C)): 42 µM
half-life ([2]; both, human, blood, oral, 500 mg, GM t1/2, Day 1): ~2 h
half-life ([2]; both, human, blood, oral, 500 mg, GM t1/2, Day 7, severe impairment group): 4 h
AUC(0-t) ([2]; both, human, in vivo, oral, 500 mg, AUC0-12 GM, total TZ, steady state after NTZ 500 mg BID 7 days, Control group (normal hepatic function)): 162 µM·h
CL renal ([2]; both, human, urine, oral, 500 mg): 0.0333 to 0.5 mL/min
AUC0-12 accumulation GM Ratio (Day 7/Day 1) [2, 4]: 1.5980
Cmax accumulation GM Ratio (Day 7/Day 1) [2, 4]: 1.3993
Cmax accumulation GM Ratio (Day 7/Day 1) ([2]; total TZ, all groups combined, listed as total TZ): around 1.4
AUC0-12 GM Ratio (Impaired/Control) [2, 5]: 0.8960
AUC0-t GM Ratio (Impaired/Control) [2, 5]: 0.9064
Cmax GM Ratio (Impaired/Control) [2, 5]: 0.8008
AUC0-12 GM Ratio (Impaired/Control) [2, 6]: 1.6353
AUC0-t GM Ratio (Impaired/Control) [2, 6]: 1.7940
Cmax GM Ratio (Impaired/Control) ([2]; total TZ, Severe (CP C) vs Control, listed as Total TZ): 1.1921
Cmax GM Ratio (Impaired/Control) ([2]; total TZ, Severe (CP C) vs Control, listed as total TZ): 1.19
correlation coefficient AUC0-12 vs ALT ([2]; total analyte): P (LS): −0.07
correlation coefficient AUC0-12 vs AST ([2]; total analyte): P (NS): 0.17
correlation coefficient AUC0-12 vs Albumin ([2]; total analyte): P (NS): −0.4
correlation coefficient AUC0-12 vs Bilirubin ([2]; total analyte): P (NS): 0.43
correlation coefficient AUC0-12 vs INR ([2]; total analyte): P (NS): 0.46
correlation coefficient Cmax vs ALT ([2]; total analyte): P (LS): −0.17
correlation coefficient Cmax vs AST ([2]; total analyte): P (LS): −0.05
correlation coefficient Cmax vs Albumin ([2]; total analyte): P (NS): −0.25
correlation coefficient Cmax vs Bilirubin ([2]; total analyte): P (NS): 0.47
correlation coefficient Cmax vs INR ([2]; total analyte): P (NS): 0.46
correlation coefficient AUC0-12 vs ALT ([2]; unbound (u-) analyte): P (LS): −0.06
correlation coefficient AUC0-12 vs AST ([2]; unbound (u-) analyte): P (NS): 0.15
correlation coefficient AUC0-12 vs Albumin ([2]; unbound (u-) analyte): P (NS): −0.37
correlation coefficient AUC0-12 vs Bilirubin ([2]; unbound (u-) analyte): P (NS): 0.47
correlation coefficient AUC0-12 vs INR ([2]; unbound (u-) analyte): P (NS): 0.5
correlation coefficient Cmax vs ALT ([2]; unbound (u-) analyte): P (LS): −0.15
correlation coefficient Cmax vs AST ([2]; unbound (u-) analyte): S (NS): −0.09
correlation coefficient Cmax vs Albumin ([2]; unbound (u-) analyte): P (NS): −0.24
correlation coefficient Cmax vs INR ([2]; unbound (u-) analyte): P (NS): 0.49
correlation coefficient Cmax vs Bilirubin ([2]; unbound (u-) analyte, listed as u-Tizoxanide): P (NS): 0.51
correlation coefficient Cmax vs Bilirubin ([2]; unbound (u-) analyte, listed as unbound TZ): 0.51

— US20260124182A1, “NITAZOXANIDE FOR THE TREATMENT OF HEPATIC IMPAIRMENT” (GENFIT, priority 2022, published 2026)
